Experimental data as given in publication PMC6099102, “Effect of the Nature of Donor Atoms on the Thermodynamic, Kinetic and Relaxation Properties of Mn(II) Complexes Formed With Some Trisubstituted 12-Membered Macrocyclic Ligands” (Frontiers in Chemistry, 2018).
Read-outs that look alike come from different tables or passages of the source.

Key:
[1] = Longitudinal water proton relaxivity (r1p) of the Mn(II) complexes; type: physicochemical
Protocol: The relaxometric data were collected using a Bruker Minispec MQ20 NMR relaxometer. […] A datapoint plotted on figures represents an average of 5–6 T1 measurements (Figures S3–S9 in Supplementary Material). The data were fitted by using the molar r1p relaxivity value of the MnCl2 ([…] at 0.49 T and 25 °C). The equilibrium constants were calculated using the PSEQUAD program (Zékány and Nagypál, [1985]).
The longitudinal water proton relaxation rates (r1 = 1/T1-1/Tw) were measured at 20 MHz with a Bruker Minispec MQ-20 relaxometer (Bruker Biospin, Germany). Samples were thermostated by using a circulating water bath at 25.0 ± 0.2 °C. The longitudinal relaxation times (T1) were measured by the inversion-recovery method (180° − τ − 90°), averaging 5–6 data points collected for each concentration point obtained from 14 different τ values (τ values ranging between 0 to at least 6 times the expected T1). The relaxivity of the complexes was determined by titrating a nearly 1.0 mM ligand solution with a Mn(II) stock solution at pH = 7.22–7.43 (50 mM HEPES buffer, I = 0.15 M NaCl, 25 °C). Under these conditions, the only Mn(II) ion containing species present in solution is the [Mn(L)], which was supported by the r1 vs. pH profiles. The relaxivity of the complex was determined as the slope of the strait line obtained by plotting 1/T1p values as a function of Mn(II) concentration for samples with [Ligand] > [Mn(II)]. The relaxivity of [Mn(DOTP)]^6− and [Mn(DO3P)]^4− was determined in the pH range of 10.0–11.0 and 8.5–9.3, respectively where mainly the [Mn(DO3P)]^4− and [Mn(DOTP)]^6− complex exists in solution (Figures S4 and S9 in Supplementary Material).
The relaxivity (r1p, mM^−1s^−1) is defined as the longitudinal water proton relaxation rate in a solution containing 1.0 mM concentration of the paramagnetic species. It characterizes the efficiency of a paramagnetic metal chelate to enhance the solvent proton relaxation rate at a given magnetic field (usually 20 MHz) and temperature. The inner-sphere contribution to relaxivity is directly proportional to the number of metal bound water molecules (q), and therefore, relaxivity values may provide some useful information on the hydration state of paramagnetic complexes of similar molecular weights and electronic relaxation times. […] The r1p values of the Mn(II) complexes formed with heptadentate 12-membered macrocyclic ligands were determined at 0.5 T field strength and 25 °C and reported in Table 4 along with some relaxivity data published for the complexes of hexa-, hepta- and octadentate ligands. […] Below these pH ranges the phosphonate moieties undergo protonation, which further increases the relaxivity (2.60–2.90 mM^−1s^−1 values were observed near pH = 7.4, see Supplementary Material). Similar increase in the relaxivity (to 3.20 mM^−1s^−1 at 20 MHz, 37 °C) is observed for the [Mn(DOTA)]^2− complex upon its protonation and formation of the thermodynamically stable diprotonated [Mn(H2DOTA)] complex that exists as a non-hydrated chelate both in solution and in the solid state (Wang and Westmoreland, [2009]). The relaxivity of the diprotonated species at t → 0 time point was determined from the extrapolation of the relaxivity vs. time data collected after acidification of the samples containing the complexes. The X-ray crystallographic structure of [Mn(H2DOTA)] indicates the protonation of two trans carboxylate moieties (e.g., the coordination around the metal ion is similar to that observed in [Mn(trans-DO2A)] as determined by DFT calculations). Thus, the relaxivity of the diprotonated [Mn(H2DOTA)] and [Mn(H2DOTMA)] complexes is expected to be similar to that of [Mn(trans-DO2A)] (when q = 0). The value obtained by us is considerably higher, which highlights the importance of prototropic exchange as a useful tool to improve the relaxivity of the complexes (however, it has to be underlined that the protonation of the complex generally leads to a decrease in kinetic inertness).

[2] = Dissociation kinetics of the Mn(II) complexes (acid catalyzed dissociation, metal or ligand exchange reactions); type: physicochemical; settings: I = 0.15 M NaCl, 25 °C; for t1/2 pH = 7.4 cM = 10^−5 M: half-life of dissociation calculated for pH 7.4, 10 μM exchanging metal ion; for t1/2 0.1 M HCl: half-life of dissociation calculated for 0.1 M H+
Protocol: The dissociation reactions were followed by UV-vis spectrophotometry at 269 nm for the pyclen derivatives or at 300 nm for other complexes in the pH range of 3.6–5.0 for the exchange reactions with Cu(II) and up to pH = 6.0 when Zn(II) was used as a ligand scavenger. The acid catalyzed dissociation reactions were performed in the HCl concentration range of 0.05–1.0 M. The concentration of the complexes in the samples was 0.25 mM, while the concentration of the exchanging metal ion in the metal initiated transchelation reactions was 10–40 times higher to ensure pseudo-first-order conditions. Relaxometry was used to follow the transchelation reactions of [Mn(DOTAM)]^2+, [Mn(DO3AM^H)]^2+, [Mn(DO3A)]^−, [Mn(PCTA)]^− and [Mn(ODO3A)]^− with Cu(II)/Zn(II) ions in the pH range of 3.6–5.5 (Figures S17–S19 in Supplementary Material). The concentration of the complexes in these samples was set to 1.0–2.0 mM to achieve relatively large change during the dissociation reaction. […] The temperature was maintained at 25 °C and the ionic strength of the solutions was kept constant at 0.15 M with NaCl. N,N′-dimethyl- (DMP) and N-methyl-piperazine (NMP) buffers (log K2H = 4.18 and 4.90 at 25 °C and I = 0.15 M NaCl, respectively) were used at 0.05 M concentration to keep the pH constant. The pseudo-first-order rate constants (kobs) were calculated by fitting the absorbance or relaxivity-time data pairs to Equation (1) (1) Xt=(X0-Xe)e^-kobst+Xe where Xt, X0, and Xe are the absorbance or relaxivity at time t, at the start and at equilibrium, respectively. The calculations were performed with the computer program Micromath Scientist, version 2.0 (Salt Lake City, UT, USA) using a standard least-squares procedure.
The kinetic inertness of the Mn(II) complexes is the other important parameter for the complexes considered for use in vivo. The inertness of Mn(II) complexes formed with trisubstituted 12-memberd macrocyclic ligands were characterized either by studying the rates of acid catalyzed dissociation or by studying transmetallation reactions occurring between the complexes and a suitable exchanging metal ion such as Zn(II) or Cu(II). The demetallation reactions of labile complexes were performed at high pH by following the ligand exchange reactions with trans-CDTA and DTPA ligands. The demetallation reactions were studied in the presence of a large Cu(II)/Zn(II)/trans-CDTA/DTPA excess or by using high acid concentration in order to ensure pseudo-first-order conditions (Equation 6). Scheme 1 outlines all the possible dissociation pathways for the Mn(II) complexes. […] The reactions of the released Mn(II) and L ligand with the exchanging L' and M' reactants are assumed to be very rapid.
The rate of dissociation can be expressed by the Equation (6), where kobs is the pseudo-first-order rate constant and [Mn(L)]t is the total concentration of the species containing [Mn(L)] complex. The [Mn(L)]t will differ slightly depending on the experimental conditions (in the presence of a large metal or ligand excess). As [Mn(L)]t = [Mn(L)] + [Mn(HL)] + [Mn(H2L)] + [Mn(L)M] + [Mn(L)(L')] + [Mn(HL)(L')] for reactions performed at high pH (in the pH range of 3.0–5.0 often applied in Cu(II) exchange reactions) will involve fewer protonated species while the acid catalyzed dissociation reactions run in the strongly acidic media (0.1–1.0 M acid concentration range) predominantly contain protonated species ([Mn(L)]t = [Mn(L)]+[Mn(HL)]+[Mn(H2L)]). (6) -d[MnL]t/dt=kobs[MnL]t
By taking into account the various complex species and the possible reaction pathways as well as the protonation and stability constants of the reactive intermediates, the following equation (Equation 7) can be derived to describe the rates of dissociation. […]

[3] = cited from earlier work
[4] = 0.5 T field strength, 25 °C and pH = 7.4
[5] = ligand exchange reaction with trans-CDTA^4− or DTPA^5− in the pH range 8-9.5

Row | SMILES | r1p [1, 4] [mM⁻¹ s⁻¹] | t1/2 pH = 7.4 cM = 10^−5 M [2] | t1/2 0.1 M HCl [2] [min] | k1 (proton-assisted dissociation) [2] | further results
1 | O=C([O-])CN1CCOCCN(CC(=O)[O-])CCN(CC(=O)[O-])CC1.[Mn+2] [[Mn(ODO3A)]^−] | 1.40 | 1.8 × 10^2 h |  | 27 ± 2 M⁻¹ s⁻¹ | k2 (proton-assisted dissociation) [2]: (1.5 ± 0.3) × 10^5 M^−2s^−1
2 | O=C([O-])CNC(=O)CN1CCN(CC(=O)NCC(=O)[O-])Cc2cccc(n2)CN(CC(=O)NCC(=O)[O-])CC1.[Mn+2] [[Mn(PC3AM^Gly)]^−] | 1.44 |  | 5.83 |  | k1 (proton-assisted dissociation) ([2]; proton-assisted dissociation of the [Mn(H3L)] complex): (1.64 ± 0.02) × 10^−2[c] M^−1s^−1; k0 (spontaneous dissociation) ([2]; spontaneous dissociation of the [Mn(H3L)] complex): (3.4 ± 0.2) × 10^−4[c] s^−1
3 | NC(=O)CN1CCN(CC(N)=O)Cc2cccc(n2)CN(CC(N)=O)CC1.[Mn+2] [[Mn(PC3AM^H)]^2+] | 1.21 |  | 10.8 | (1.07 ± 0.01) × 10^−2 M^−1s^−1 | 
4 | O=P([O-])([O-])CN1CCNCCN(CP(=O)([O-])[O-])CCN(CP(=O)([O-])[O-])CC1.[Mn+2] [[Mn(DO3P)]^4−] |  | 3 × 10^−3 h |  |  | r1p ([1]; 0.5 T, 25 °C, determined in the pH range of 8.5–9.3): 2.23^[b] mM^−1s^−1; relaxivity ([1]; near pH = 7.4, protonated phosphonate moieties): 2.60 to 2.90 mM⁻¹ s⁻¹; k1 (proton-assisted dissociation) [2, 5]: (2.4 ± 0.2) × 10^5 M^−1s^−1; k2 (proton-assisted dissociation) [2, 5]: (2.2 ± 0.3) × 10^14 M^−2s^−1

Now from value to molecule, other results behind:

Row | r1p [1, 4] [mM⁻¹ s⁻¹] | t1/2 pH = 7.4 cM = 10^−5 M [2] | t1/2 0.1 M HCl [2] [min] | SMILES | k1 (proton-assisted dissociation) [2] | further results
5 | 1.18 to 1.31 | 1.1 × 10^4 h |  | O=C([O-])CN1CCNCCN(CC(=O)[O-])CCN(CC(=O)[O-])CC1.[Mn+2] [[Mn(DO3A)]^−] | 0.45 ± 0.03 M⁻¹ s⁻¹ | r1p ([3]; ref Rolla et al. ([2013])): 1.30 mM⁻¹ s⁻¹; k2 (proton-assisted dissociation) [2]: (3.2 ± 0.3) × 10^2 M^−2s^−1
6 | 1.33 | 5.2 × 10^3 h | 0.123 | NC(=O)CN1CCNCCN(CC(N)=O)CCN(CC(N)=O)CC1.[Mn+2] [[Mn(DO3AM^H)]^2+] | 0.94 ± 0.02 M⁻¹ s⁻¹ | 
7 | 1.11 |  | 7.17 | NC(=O)CN1CCN(CC(N)=O)CCN(CC(N)=O)CCN(CC(N)=O)CC1.[Mn+2] [[Mn(DOTAM)]^2+] | (1.6 ± 0.03) × 10^−2 M^−1s^−1 | r1p ([3]; 0.5 T field strength (20 MHz) and 37 °C, ref Wang and Westmoreland ([2009])): 0.96 mM⁻¹ s⁻¹
